Results published in patent US6120762A, “C-terminal peptides of interferon γ” (priority 1998, dated 2000).
Several values for one entry are separate records, joined by “and”; a condition that tells them apart may be missing. Equal values may be shown once.

B1: muIFNγ (protein, UniProt P01580 23-155, looked up)
Interferon gamma: HGTVIESLESLNNYFNSSGIDVEEKSLFLDIWRNWQKDGDMKILQSQIISFYLRLFEVLKDNQAISNNISVIESHLITTFFSNSKAKKDAFMSIAKFEVNNPQVQRQAFNELIRVVHQLLPESSLRKRKRSRC

System: VSV
Type: cell-based, Vesicular stomatitis virus

Row | Molecule | Effect on virus yield | Virus yield
1 | Human IFNγ | had no effect | –
2 | B1 | – | 1.2 × 10^8 and 1.6 × 10^10
